Test results from PMC6337391 (Molecules, 2019).

Tests used:
[1] = design: method as in PMID 25798685; conditions: cited from earlier work
[2] = design: method as in PMID 25798685; conditions: cited from earlier work; remark: listed apart in the source
[3] = molecular target: acetyl-cholinesterase (AChE) (Electrophorus electricus, UniProt O42275); conditions: cited from earlier work
[4] = molecular target: T1, Aβ40 (Homo sapiens, UniProt P05067); experiment: Circular dichroism study of Aβ40 aggregation; conditions: 50 µM compound, 50 µM Aβ40 (1:1), PB pH 7.33, 33 °C, 40 days
T1 construct: Amyloid peptide Aβ40 was purchased from AnaSpec Co; purchased AnaSpec Co. (Fremont, CA, USA)
T1 sequence (P05067 672-711 limits assumed): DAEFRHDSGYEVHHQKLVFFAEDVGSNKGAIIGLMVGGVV
Excerpt: The pathogenesis of Alzheimer’s disease (AD) is widely associated with the aggregation of β-amyloid peptide (Aβ) either to soluble oligomers or to higher-order polymeric insoluble fibrils. As a result, one of the main therapeutic strategies against AD targets the aggregation process of Aβ, and a great number of small molecules are being investigated for their potential to intervene in the assembly of Aβ and inhibit its neurotoxicity in vitro and in vivo [64]. Circular dichroism (CD) spectroscopy is commonly used to probe the secondary structure of polypeptides and to monitor conformational changes and interactions of polypeptides with small molecules. The typical aggregation process of Aβ produces characteristic CD spectra over time that reflect the conformational changes that occur as the random coil monomers are converted into β-sheet oligomers, and then gradually to larger β-sheet formations that finally produce amyloid fibrils. CD is, therefore, a valuable tool to monitor the aggregation process of Aβ and to study the effect of potential aggregation inhibitors. To further investigate the pleiotropic effects of chalcones against AD, selected compounds from our library, were subjected to CD studies in order to evaluate their potential to interfere with the aggregation process of Aβ40. […] The aggregation spectra of plain Aβ40 show at day 0 the typical random coil peak (negative maximum at 198 nm) the intensity of which gradually decreases as the peptide forms β–sheet structures (negative maximum at 222 nm, day 15) that further aggregate to higher order polymeric fibrils. The precipitation of the insoluble fibrils from solution eventually results in the loss of CD signal (days 30 and 40). […] In view of the above results, chalcone derivatives bearing a three-carbon chain linker, specifically c2, c3, and c4, were subsequently studied in order to assess the effect of further derivatization and the presence of the chalcone moiety in the structure. […] Overall, our CD study identified three new structures capable of interfering with the aggregation process of Aβ, out of which compounds c2 and c4 display additional protective actions against AD and add to the pleiotropic profile of the chalcone derivatives.
Preparation of Aβ stocks and solutions. Amyloid peptide Aβ40 was purchased from AnaSpec Co. (Fremont, CA, USA) (>95% pure). Aβ40 was gently dissolved without vortexing in Type 1 (Milli-Q) water to a final concentration of 100 μM. Solutions of Aβ in phosphate buffer (PB, 10 mM, pH 7.33) were prepared by adding equal volumes of PB to aliquots of the aqueous solution stock to achieve final concentration of 50 µM. The proper amount of the compounds c2, c3, c4, di, dii, and dvi were added to the Aβ solutions to achieve concentration of 50 μM. The secondary structural changes of Aβ were monitored for 40 days by CD. During this period, the amyloid peptide solutions were kept at an incubator at 33 °C under quiescent conditions.
Circular dichroism measurements. CD spectra were recorded on a JASCO J-715 spectropolarimeter (Jasco Co., Tokyo, Japan), at 33 °C in the range of 190–260 nm with a 1 mm path length quartz cuvette. Each spectrum was the average of three scans at a speed of 100 nm·min^−1 and a resolution of 0.5 nm. Three independent experiments were run for each condition and in each case solutions of plain Aβ were run as control (Figure 8). The analysis of the CD data was performed using the OriginPro 9 program.

[5] = design: method as in PMID 25798685; conditions: RP-TLC, methanol/water 70/30, SD < 10%; cited from earlier work
[6] = tested on: L929 mouse fibroblasts cells; design: method as in PMID 25798685; conditions: 24-h incubation, cited from earlier work
[7] = molecular target: T2, soybean lipoxygenase (Glycine max, UniProt P08170); design: method as in PMID 25798685; conditions: cited from earlier work
T2 sequence (P08170 1-839): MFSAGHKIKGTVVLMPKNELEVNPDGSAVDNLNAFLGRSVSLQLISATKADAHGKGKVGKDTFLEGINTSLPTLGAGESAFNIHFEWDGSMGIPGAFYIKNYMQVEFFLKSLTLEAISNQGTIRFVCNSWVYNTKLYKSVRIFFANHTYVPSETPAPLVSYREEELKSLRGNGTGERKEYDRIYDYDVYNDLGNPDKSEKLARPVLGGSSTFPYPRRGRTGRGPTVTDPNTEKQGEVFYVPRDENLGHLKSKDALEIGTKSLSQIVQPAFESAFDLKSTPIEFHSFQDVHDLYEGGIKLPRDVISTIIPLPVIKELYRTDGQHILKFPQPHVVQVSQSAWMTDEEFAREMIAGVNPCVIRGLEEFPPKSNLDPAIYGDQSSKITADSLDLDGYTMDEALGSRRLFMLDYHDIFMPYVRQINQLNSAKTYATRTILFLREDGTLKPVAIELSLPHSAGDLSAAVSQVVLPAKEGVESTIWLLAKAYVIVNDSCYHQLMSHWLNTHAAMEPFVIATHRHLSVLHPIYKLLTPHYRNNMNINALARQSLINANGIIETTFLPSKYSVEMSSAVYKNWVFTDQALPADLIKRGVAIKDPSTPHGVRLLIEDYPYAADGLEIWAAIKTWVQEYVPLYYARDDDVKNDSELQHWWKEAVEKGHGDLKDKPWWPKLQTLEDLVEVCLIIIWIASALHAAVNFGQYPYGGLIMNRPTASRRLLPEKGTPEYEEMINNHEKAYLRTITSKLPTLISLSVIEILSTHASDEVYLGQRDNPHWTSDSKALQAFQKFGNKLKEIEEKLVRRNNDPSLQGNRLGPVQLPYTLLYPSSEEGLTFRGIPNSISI

[8] = design: method as in PMID 25798685; conditions: DPPH, cited from earlier work
[9] = In vitro lipid peroxidation of liposomes

Chain of acetyl-cholinesterase (AChE) (O42275 24-633): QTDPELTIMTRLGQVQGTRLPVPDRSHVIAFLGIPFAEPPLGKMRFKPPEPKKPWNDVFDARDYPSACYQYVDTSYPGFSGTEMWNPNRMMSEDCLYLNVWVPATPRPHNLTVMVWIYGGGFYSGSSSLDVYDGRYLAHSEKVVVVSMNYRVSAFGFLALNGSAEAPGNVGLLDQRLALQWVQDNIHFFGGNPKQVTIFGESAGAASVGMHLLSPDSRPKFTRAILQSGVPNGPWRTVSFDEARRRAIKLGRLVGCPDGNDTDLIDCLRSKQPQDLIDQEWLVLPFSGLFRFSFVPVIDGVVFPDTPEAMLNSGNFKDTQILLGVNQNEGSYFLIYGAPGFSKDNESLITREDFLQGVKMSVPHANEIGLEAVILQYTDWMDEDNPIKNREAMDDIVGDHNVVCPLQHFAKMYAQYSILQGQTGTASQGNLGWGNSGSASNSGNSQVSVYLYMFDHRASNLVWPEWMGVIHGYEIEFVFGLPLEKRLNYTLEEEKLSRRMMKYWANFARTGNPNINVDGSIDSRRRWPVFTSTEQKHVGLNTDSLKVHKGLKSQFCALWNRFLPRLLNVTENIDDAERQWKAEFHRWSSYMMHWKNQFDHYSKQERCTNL

| SMILES | AAPH% @ 100 μM (anti-lipid peroxidation) [1] [%] | ABTS•+ Inhb. % @ 100 μM [2] | % AChE Inhb. @ 100 μM [3] [%] | effect on the aggregation process of Aβ40 (CD spectra) [4] | RM [5] | 1 μM Average (% pi) ± σ [6] [%] | 10 μM Average (% pi) ± σ [6] [%] | 20 μM Average (% pi) ± σ [6] [%] | 50 μM Average (% pi) ± σ [6] [%] | 100 μM Average (% pi) ± σ [6] [%] | % LOX Inhb. @ 100 μM [7] | RA% 100 μM 20 min [8] | RA% 100 μM 60 min [8] | % Inhb. of Liposomes LP @ 100 μM [9] [%] | IC50 ([7]; soybean LOX) [µM] |
| --- | --- | --- | --- | --- | --- | --- | --- | --- | --- | --- | --- | --- | --- | --- | --- |
| CC(=O)c1ccc(OCCCOc2ccc(C(C)=O)cc2)cc1 [dii, 1,1′-((propane-1,3-diylbis-(oxy))bis(4,1-phenylene))diethanone] | 20 | No | 20 | modified the aggregation course of Aβ40 by stabilizing a β-sheet structure that did not seem to evolve further | −0.23 | 9 ± 4.5 | 8.5 ± 4.24 | 13 ± 4.5 | 42 ± 3.5 | 42 ± 3.5 | no | No | no |  |  |
| CN(C)c1ccc(/C=C/C=C/C(=O)c2ccc(OCCCOc3ccc(C(=O)/C=C/C=C/c4ccc(N(C)C)cc4)cc3)cc2)cc1 [c3, (2E,2′E, 4E, 4′E)-1,1′-((propane-1,3-diylbis-(oxy))bis(4,1-phenylene)) bis-(5-(4-(dimethylamino)phenyl)penta-2,4-dien-1-one)] | 70 | 99% | 95 | no significant effect on the aggregation process of Aβ40 was observed | 0.77 | 81 ± 0.8 | 90 ± 1 | 100 ± 0 | 100 ± 0 | 100 ± 0 | 93% | 17% | 14% | 81 |  |
| O=C(/C=C/c1cccc(Oc2ccccc2)c1)c1ccc(OCCCOc2ccc(C(=O)/C=C/c3cccc(Oc4ccccc4)c3)cc2)cc1 [c2, (2E,2′E)-1,1′-((propane-1,3-diylbis(oxy))bis(4,1-phenylene))bis(3-(3-phenoxyphenyl)prop-2-en-1-one)] | 22 | no | 71 | stabilized β-sheet assemblies that did not evolve further into insoluble fibrillar aggregates | −0.89 | 17 ± 1.4 | 29 ± 4.2 | 43 ± 2.8 | 55 ± 4.2 | 55 ± 4.2 | 100% | No | 8% | 2 | 55 |
| O=C(/C=C/c1cccc2ccccc12)c1ccc(OCCCOc2ccc(C(=O)/C=C/c3cccc4ccccc34)cc2)cc1 [c4, (2E,2′E)-1, 1′-((propane-1,3-diylbis-(oxy))bis-(4,1-phenylene)) bis-(3-(naphthalen-1-yl)prop-2-en-1-one)] | 95 | no | 58 | stabilized β-sheet assemblies that did not evolve further into insoluble fibrillar aggregates | 0.43 | 29.5 ± 3.5 | 42 ± 4.6 | 46 ± 5.6 | 67 ± 9.2 | 67 ± 9.2 | 100% | 19% | 50% | 3 |  |
| O=C(/C=C/c1ccc(OCc2ccc(Br)cc2)cc1)c1ccc(OCCCOc2ccc(C(=O)/C=C/c3ccc(OCc4ccc(Br)cc4)cc3)cc2)cc1 [c1, (2E,2′E)-1,1′-((propane-1,3-diylbis(oxy))bis(4,1-phenylene))bis(3-(4-((4-bromobenzyl)oxy)phenyl)prop-2-en-1-one)] | 42 | no | 23 |  | −0.68 | 38.5 ± 6.9 | 49.5 ± 7.8 | 53.5 ± 0.71 | 74 ± 5.6 | 74 ± 5.6 | 41% | 36% | 55% |  |  |
